For assay [1], the target named is T1, wild type NTRK1 enzyme (Homo sapiens, UniProt P04629).
T1 construct: purchased BPS Bioscience 40280
Description: NTRK1 Wild Type Assay at 1 mM ATP. In kind it is biochemical. The settings on record: 1 mM ATP; read-out: Enz NTRK1 IC50. How it is done: NTRK1 Wild Type Assay at 1 mM ATP
The reaction was stopped by the addition of 70 μL of Stop buffer (100 mM HEPES pH 7.5, 0.015% Brij 35, 35 mM EDTA and 0.2% of Coating Reagent 3 (Caliper Lifesciences)). The plate was then read on a Caliper EZReader 2 (protocol settings: −1.7 psi, upstream voltage −500, downstream voltage −3000, post sample sip 35s).

For assay [2], the system named is KM12 wild type colon carcinoma cell line harboring the TPM3-NTRK1 fusion protein. Description: NTRK wild type cellular assay (CellTiter-Glo growth inhibition). In kind it is cell-based. The conditions noted are these: 72 hr, CellTiter-Glo, read-out: KM12 (WT) IC50. The protocol:
(§1) NTRK Wild Type and G595R Mutant Cellular Assays Protocol
(§2) KM12 wild type colon carcinoma cell line harboring the TPM3-NTRK1 fusion protein was obtained from the National Cancer Institute (NCI). This line has been previously shown to be dependent upon the NTRK activity derived from the NTRK fusion protein for growth and survival. […] Cells were first plated in 384-well plates at 1000 cells/well in complete media (10% FBS and 1% pen/strep) and incubated overnight at 37° C. Cells were then dosed with test articles at varying concentrations using the Bravo liquid handling system. […] Each compound was run in duplicate per plate. […] 72 hr after dosing, assay plates were developed using CellTiter-Glo (Promega) and resultant luminescence was read on the Envision plate reader. IC50 determinations were calculated using a 4-parameter curve fitting algorithm
In general terms: In ATP-based viability assays light output follows the ATP content of the culture.

Assay [3] concerns KM12 Cliff (G595R) cell line. Description: NTRK G595R mutant cellular assay (CellTiter-Glo growth inhibition). The format is cell-based. The settings on record: 72 hr, CellTiter-Glo. The protocol:
as §1, §2

These results are taken from US11046697B2, “Compounds and compositions useful for treating disorders related to NTRK” (BLUEPRINT MEDICINES CORPORATION, priority 2015, dated 2021).

Where two headings read alike, the source gives them in different places.

T1 sequence (P04629 440-796 limits assumed): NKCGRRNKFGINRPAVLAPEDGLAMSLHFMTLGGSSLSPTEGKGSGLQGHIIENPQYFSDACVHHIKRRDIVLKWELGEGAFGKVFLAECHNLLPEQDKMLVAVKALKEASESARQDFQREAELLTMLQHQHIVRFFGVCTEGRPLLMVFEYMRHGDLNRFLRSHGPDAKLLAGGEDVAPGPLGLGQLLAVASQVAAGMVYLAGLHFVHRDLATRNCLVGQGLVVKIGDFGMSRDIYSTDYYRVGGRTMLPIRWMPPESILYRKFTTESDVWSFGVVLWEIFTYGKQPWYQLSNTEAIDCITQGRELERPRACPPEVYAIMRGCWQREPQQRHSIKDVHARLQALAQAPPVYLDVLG

Take `N#CC1CC(O)C(Nc2ncnc3[nH]nc(C(=O)N4CC(F)CC4c4cc(F)cc(F)c4)c23)C1` (stereo not drawn) [Compound 185]: the IC50 in assay [1], in assay [2] and in assay [3] was less than 10 nM in each case.
In the case of `CN(Cc1cc(F)cc(F)c1F)C(=O)c1n[nH]c2ncnc(N[C@@H]3CC[C@@H](O)[C@H]3O)c12` [Compound 63], the IC50 (commonly the concentration at which inhibition is half-maximal) was less than 10 nM in assay [1]; 10 to 100 nM in assay [2] (Homo sapiens, KM12, 72 h); 10 to 100 nM in assay [3] (Homo sapiens, KM12, 72 h).
As for `COc1ccc(F)cc1CNC(=O)c1n[nH]c2ncnc(N[C@@H]3CC[C@@H](O)[C@H]3O)c12` [Compound 117], the IC50 is 100 to 1000 nM in assay [1]; 100 to 1000 nM in assay [2] (Homo sapiens, KM12, 72 h); greater than 1000 nM in assay [3] (Homo sapiens, KM12, 72 h).
Take `O=C(c1n[nH]c2ncnc(NC3CCCC(O)C3O)c12)N1CC(F)CC1c1cccc(F)c1` (stereo not drawn) [Compound 168]: the IC50 in assay [1], in assay [2] and in assay [3] was less than 10 nM each time.
Consider `O=C(c1n[nH]c2ncnc(N[C@@H]3CC(F)(F)[C@@H](O)[C@H]3O)c12)N1C[C@@H](F)C[C@@H]1c1cc(F)ccc1F` [Compound 227], for which the IC50 in assay [1], in assay [2] and in assay [3] was less than 10 nM throughout.
In the case of `CN(Cc1cc(F)cn(C)c1=O)C(=O)c1n[nH]c2ncnc(N[C@@H]3CCC[C@H]3O)c12` [Compound 136], the IC50 was less than 10 nM in assay [1]; 10 to 100 nM in assay [2] (Homo sapiens, KM12, 72 h); 10 to 100 nM in assay [3] (Homo sapiens, KM12, 72 h).
As to `O=C(NCc1cc(F)ccc1F)c1n[nH]c2ncnc(NC3CC(F)CC3O)c12` (stereo not drawn) [Compound 14], the IC50 in assay [1], in assay [2] and in assay [3] was 100 to 1000 nM throughout.
As to `O=C(NCc1cc(F)ccc1F)c1n[nH]c2ncnc(N[C@@H]3CCOC[C@H]3O)c12` [Compound 11], the IC50 in assay [1] lay within 100 to 1000 nM; in assay [2] (Homo sapiens, KM12, 72 h), 100 to 1000 nM; in assay [3] (Homo sapiens, KM12, 72 h), 100 to 1000 nM.
Take `O=C(c1n[nH]c2ncnc(NC3CC[C@@H](O)C[C@H]3O)c12)N1C[C@@H](F)C[C@@H]1c1cc(F)ccc1F` (stereo partly drawn) [Compound 191]: the results for the IC50 in assay [1], in assay [2] and in assay [3] were less than 10 nM, 10 to 100 nM and 10 to 100 nM, respectively.
For the compound `O=C(c1n[nH]c2ncnc(NC3CCOCC3O)c12)N1CC(F)CC1c1cc(F)cc(Cl)c1` (stereo not drawn) [Compound 198], the IC50 in assay [1], in assay [2] and in assay [3] was less than 10 nM each time.
For `O=C(c1n[nH]c2ncnc(NC3CCCC(O)C3O)c12)N1CC(F)CC1c1cc(F)ccc1Cl` (stereo not drawn) [Compound 217], the IC50 in assay [1], in assay [2] and in assay [3] was less than 10 nM in each case.
`COc1c(F)cc(F)cc1[C@H]1C[C@H](F)CN1C(=O)c1n[nH]c2ncnc(N[C@@H]3COC[C@@H](O)[C@H]3O)c12` [Compound 236]: the IC50 in assay [1] is less than 10 nM; in assay [2] (Homo sapiens, KM12, 72 h), less than 10 nM; in assay [3] (Homo sapiens, KM12, 72 h), 10 to 100 nM.
Turning to `O=C(NCc1cc(F)ccc1F)c1n[nH]c2ncnc(N[C@@H]3CC[C@@H](F)[C@H]3O)c12` (relative stereo) [Compound 19], the IC50 was greater than 1000 nM in assay [1]; greater than 1000 nM in assay [2] (Homo sapiens, KM12, 72 h); greater than 1000 nM in assay [3] (Homo sapiens, KM12, 72 h).
On to `CN(Cc1cc(F)ccc1OC(F)(F)F)C(=O)c1n[nH]c2ncnc(N[C@@H]3CC[C@@H](O)[C@H]3O)c12` [Compound 110], for which the IC50 in assay [1] was less than 10 nM; in assay [2] (Homo sapiens, KM12, 72 h), 10 to 100 nM; in assay [3] (Homo sapiens, KM12, 72 h) it was 10 to 100 nM.
`O=C(c1n[nH]c2ncnc(NC3CCOCC3O)c12)N1CC(F)CC1c1cccc(F)c1F` (stereo not drawn) [Compound 175]: the results for the IC50 in assay [1], in assay [2] and in assay [3] were less than 10 nM, 10 to 100 nM and 10 to 100 nM, respectively.
On to `CN(Cc1cccc(Cl)c1)C(=O)c1n[nH]c2ncnc(N[C@@H]3CC[C@@H](O)[C@H]3O)c12` [Compound 137], for which the IC50 in assay [1], in assay [2] and in assay [3] was 10 to 100 nM throughout.
Turning to `CN(Cc1cc(Cl)ccc1C#N)C(=O)c1n[nH]c2ncnc(N[C@@H]3CC[C@@H](O)[C@H]3O)c12` [Compound 156, N-(5-chloro-2-cyanobenzyl)-4-(((1R,2S,3R)-2,3-dihydroxycyclopentyl)amino)-N-methyl-1H-pyrazolo[3,4-d]pyrimidine-3-carboxamide], the IC50 is 10 to 100 nM in assay [1]; 10 to 100 nM in assay [2] (Homo sapiens, KM12, 72 h); less than 10 nM in assay [3] (Homo sapiens, KM12, 72 h).
With `O=C(NCc1cc(F)ccc1F)c1n[nH]c2ncnc(NC3CCC(F)C3O)c12` (stereo not drawn) [Compound 18], the IC50 in assay [1] is 100 to 1000 nM; in assay [2], 100 to 1000 nM; in assay [3], greater than 1000 nM.
In the case of `COc1ncc(F)cc1[C@H]1C[C@H](F)CN1C(=O)c1n[nH]c2ncnc(N[C@@H]3CCOC[C@H]3O)c12` [Compound 190], the IC50 in assay [1] was less than 10 nM; in assay [2] (Homo sapiens, KM12, 72 h) it was 10 to 100 nM; in assay [3] (Homo sapiens, KM12, 72 h), 10 to 100 nM.
As to `O=C(c1n[nH]c2ncnc(NC3CCOCC3O)c12)N1CC(F)CC1c1cc(F)ccc1OC(F)(F)F` (stereo not drawn) [Compound 241], the IC50 in assay [1], in assay [2] and in assay [3] was less than 10 nM each time.
Take `N#C[C@H]1C[C@@H](O)[C@H](Nc2ncnc3[nH]nc(C(=O)N4C[C@@H](F)C[C@@H]4c4cc(F)cc(Cl)c4)c23)C1` [Compound 211]: the IC50 in assay [1] is less than 10 nM; in assay [2] (Homo sapiens, KM12, 72 h) it was less than 10 nM; in assay [3] (Homo sapiens, KM12, 72 h), less than 10 nM.
Turning to `CN(Cc1cc(F)cc(Cl)c1F)C(=O)c1n[nH]c2ncnc(N[C@@H]3CC[C@@H](O)[C@H]3O)c12` [Compound 120], the IC50 is 10 to 100 nM in assay [1]; 10 to 100 nM in assay [2] (Homo sapiens, KM12, 72 h); 10 to 100 nM in assay [3] (Homo sapiens, KM12, 72 h).
Regarding `O=C(c1n[nH]c2ncnc(N[C@@H]3COCC[C@H]3O)c12)N1C[C@@H](F)C[C@@H]1c1cc(F)ccc1F` [Compound 92], the IC50 is less than 10 nM in assay [1]; less than 10 nM in assay [2] (Homo sapiens, KM12, 72 h); less than 10 nM in assay [3] (Homo sapiens, KM12, 72 h).
Take `CC(c1cc(F)ccc1F)N(C)C(=O)c1n[nH]c2ncnc(NC3COCC(O)C3O)c12` (stereo not drawn) [Compound 160]: the IC50 in assay [1] was less than 10 nM; in assay [2], 10 to 100 nM; in assay [3], 10 to 100 nM.
`O=C(NCc1cc(F)cc(Cl)c1)c1n[nH]c2ncnc(NC3CCC(O)C3O)c12` (stereo not drawn) [Compound 38]: the IC50 in assay [1], in assay [2] and in assay [3] was 100 to 1000 nM throughout.
In the case of `O=C(c1n[nH]c2ncnc(N[C@@H]3CC[C@@H](O)[C@H]3O)c12)N1CC(F)(F)C[C@@H]1c1cc(F)cc(F)c1` [Compound 108], the IC50 lay within 10 to 100 nM in assay [1]; 100 to 1000 nM in assay [2] (Homo sapiens, KM12, 72 h); 100 to 1000 nM in assay [3] (Homo sapiens, KM12, 72 h).
Take `O=C(c1n[nH]c2ncnc(NC3CCCC(F)(F)[C@H]3O)c12)N1C[C@@H](F)C[C@@H]1c1cc(F)ccc1F` (stereo partly drawn) [Compound 225]: the IC50 was less than 10 nM in assay [1], 10 to 100 nM in assay [2] and 10 to 100 nM in assay [3].
Consider `O=C(NC1(c2cc(F)ccc2F)CC1)c1n[nH]c2ncnc(N[C@@H]3COCC[C@H]3O)c12` [Compound 47], for which the IC50 in assay [1], in assay [2] and in assay [3] was 100 to 1000 nM each time.
For `O=C(c1n[nH]c2ncnc(N[C@H]3[C@H](O)[C@H](O)[C@@H]4C[C@@H]43)c12)N1CC(F)(F)C[C@@H]1c1cc(F)ccc1F` [Compound 112], the 50% inhibitory concentration (IC50) was in the range of 10 to 100 nM in assay [1]; 10 to 100 nM in assay [2] (Homo sapiens, KM12, 72 h); 100 to 1000 nM in assay [3] (Homo sapiens, KM12, 72 h).
